Test results: patent publication US7964624B1, “Inhibitors of serine proteases” (priority 2005, dated 2011)

The compounds below were run against T1, full-length hepatitis C viral protein NS3•4A (Hepatitis C virus genotype 1a, UniProt P27958) (assay: biochemical). Settings: Enzyme Assay 2 (HCV NS3 Peptide Cleavage Assay) activity, apparent Ki class.
T1 construct: hexa-histidine (N); made in house; host or cells: Sf9 insect cells (baculovirus, pVL1392)
Set-up: species or system HCV sub-type strain 1a

| SMILES | Ki |
| --- | --- |
| C=C[C@@H]1C[C@]1(NC(=O)[C@@H]1C[C@]2(CC(c3cccc(Cl)c3)=NO2)CN1C(=O)[C@@H](NC(=O)OC1CCCC1)C(C)(C)C)C(=O)O [Compound 443] | > 500 nM |
| CCC[C@H](NC(=O)[C@@H]1C[C@]2(CC(c3cccc(Cl)c3)=NO2)CN1C(=O)[C@H](CC(C)C)NS(=O)(=O)c1ccc(OC)cc1)C(=O)C(=O)NC1CC1 [Compound 587] | 100 to 500 nM |
| CCC[C@H](NC(=O)[C@@H]1C[C@]2(CC(c3cccc(Cl)c3)=NO2)CN1C(=O)[C@@H](NC(=O)CC1CCCCC1)C(C)(C)C)C(=O)C(=O)N[C@@H](C)C(O)(c1ccccc1)c1ccccc1 [Compound 507] | > 500 nM |
| CNC(=O)C(=O)[C@H](CC1CC1)NC(=O)[C@@H]1C[C@]2(CC(c3cc(Cl)c(OC)cc3OC)=NO2)CN1C(=O)[C@@H](NC(=O)OC1CCCC1)C(C)(C)C [Compound 744] | < 100 nM |
| CCC[C@H](NC(=O)[C@@H]1C[C@]2(CC(c3cccc(Cl)c3F)=NO2)CN1C(=O)[C@@H](NC(=O)CC1CCCCC1)C(C)(C)C)C(=O)C(=O)NC1CC1 [Compound 169] | 100 to 500 nM |
| CCC[C@H](NC(=O)[C@@H]1C[C@]2(CC(c3cc(Cl)c(OC)cc3C)=NO2)CN1C(=O)[C@@H](NC(=O)CC(C)(C)C)C(C)(C)C)C(=O)C(N)=O [Compound 624] | 100 to 500 nM |
| CC(C)(C)[C@H](NC(=O)CC1CCCCC1)C(=O)N1C[C@@]2(CC(c3cccc(Cl)c3)=NO2)C[C@H]1C(=O)N[C@@H](CC1CC1)C(=O)C(=O)NC1CC1 [Compound 50] | < 100 nM |
| CCC[C@H](NC(=O)[C@@H]1C[C@]2(CC(c3cc(Cl)ccc3OC)=NO2)CN1C(=O)[C@@H](NC(=O)CC1CCCCCC1)C(C)(C)C)C(=O)C(=O)NC [Compound 634] | < 100 nM |
| CCC[C@H](NC(=O)[C@@H]1C[C@]2(CC(c3cc(Cl)c(OC)cc3C)=NO2)CN1C(=O)[C@@H](NC(=O)CC1CCCCC1)C(C)(C)C)C(=O)C(=O)NC [Compound 604] | 100 to 500 nM |
| CCC[C@H](NC(=O)[C@@H]1C[C@]2(CC(c3cc(Cl)c(OC)cc3C)=NO2)CN1C(=O)[C@@H](NC(=O)CC(C)(C)C)C(C)(C)C)C(=O)C(=O)NC1CC1 [Compound 608] | 100 to 500 nM |
| CCC[C@H](NC(=O)[C@@H]1C[C@]2(CC(c3cc(Cl)ccc3OC)=NO2)CN1C(=O)[C@@H](NC(=O)CC1CCCCCC1)C(C)(C)C)C(=O)C(=O)NC1CC1 [Compound 649] | 100 to 500 nM |
| COc1c(C)cc(C2=NO[C@]3(C2)C[C@@H](C(=O)N[C@@H](CC2CC2)C(=O)C(N)=O)N(C(=O)[C@@H](NC(=O)CC2CCCCC2)C(C)(C)C)C3)cc1Cl [Compound 195] | < 100 nM |
| CCC[C@H](NC(=O)[C@@H]1C[C@]2(CC(c3cc(Cl)c(OC)cc3C)=NO2)CN1C(=O)[C@@H](NC(=O)OC(C)(C)C)C(C)(C)C)C(=O)C(=O)NC1CC1 [Compound 628] | 100 to 500 nM |
| CNC(=O)C(=O)[C@H](CC1CC1)NC(=O)[C@@H]1C[C@]2(CC(c3cc(Cl)c(OC)cc3C)=NO2)CN1C(=O)[C@@H](NC(=O)CC1CCCCC1)C(C)(C)C [Compound 662] | 100 to 500 nM |
| CCC[C@H](NC(=O)[C@@H]1C[C@]2(CC(c3cccc(Cl)c3)=NO2)CN1C(=O)[C@@H](NC(=O)CC1CC2CCC1C2)C(C)(C)C)C(=O)C(N)=O (some centres unmarked) [Compound 779] | < 100 nM |
| CCC[C@H](NC(=O)[C@@H]1C[C@]2(CC(c3ccc(F)c(Cl)c3)=NO2)CN1C(=O)[C@@H](NC(=O)CC1CCCCCC1)C(C)(C)C)C(=O)C(N)=O [Compound 623] | < 100 nM |
| CCC[C@H](NC(=O)[C@@H]1C[C@]2(CC(c3ccc(F)c(Cl)c3)=NO2)CN1C(=O)[C@@H](NC(=O)OC1CCCC1)C(C)(C)C)C(=O)C(=O)NC [Compound 653] | 100 to 500 nM |
| CCC[C@H](NC(=O)[C@@H]1C[C@]2(CC(c3cc(Cl)c(OC)cc3OC)=NO2)CN1C(=O)[C@@H](NC(=O)CC1CCCCC1)C(C)(C)C)C(=O)C(N)=O [Compound 618] | < 100 nM |
| CNC(=O)C(=O)[C@H](CC1CC1)NC(=O)[C@@H]1C[C@]2(CC(c3cccc(Cl)c3)=NO2)CN1C(=O)[C@@H](NC(=O)[C@H]1C[C@@H]1c1cccs1)C(C)(C)C [Compound 739] | < 100 nM |
| CCC[C@H](NC(=O)[C@@H]1C[C@]2(CC(c3cc(Cl)c(OC)cc3C)=NO2)CN1C(=O)[C@@H](NC(=O)CC1CCCCCC1)C(C)(C)C)C(=O)C(=O)NC1CC1 [Compound 606] | 100 to 500 nM |
| CCC[C@H](NC(=O)[C@@H]1C[C@@]2(CC(c3cc(Cl)c4c(c3)CCCN4C)=NO2)CN1C(=O)[C@@H](NC(=O)OC(C)(C)C)C(C)(C)C)C(=O)C(=O)NC1CC1 [Compound 600] | 100 to 500 nM |
| CCC[C@H](NC(=O)[C@@H]1C[C@]2(CC(c3cc(C)c(OC)c(Cl)c3)=NO2)CN1C(=O)[C@@H](NC(=O)OC(C)(C)C)C(C)(C)C)C(=O)C(=O)NC1CC1 [Compound 645] | < 100 nM |
| CNC(=O)C(=O)[C@H](CC1CC1)NC(=O)[C@@H]1C[C@]2(CC(c3cccc(Cl)c3)=NO2)CN1C(=O)[C@@H](NC(=O)C1C[C@@H]1c1ccccc1)C(C)(C)C (some centres unmarked) [Compound 695] | < 100 nM |
| CCC[C@H](NC(=O)[C@@H]1C[C@]2(CC(c3cc(Cl)nc4ccccc34)=NO2)CN1C(=O)[C@@H](NC(=O)OC1CCCC1)C(C)(C)C)C(=O)C(=O)NC1CC1 [Compound 639] | < 100 nM |
| CCC[C@H](NC(=O)[C@@H]1C[C@]2(CC(c3cc(C)c(OC)cc3OC)=NO2)CN1C(=O)[C@@H](NC(=O)CC1CCCCC1)C(C)(C)C)C(=O)C(=O)NC1CC1 [Compound 614] | < 100 nM |
| CCC[C@H](NC(=O)[C@@H]1C[C@]2(CC(c3ccc(F)c(Cl)c3)=NO2)CN1C(=O)[C@@H](NC(=O)CC(C)(C)C)C(C)(C)C)C(=O)C(=O)NC [Compound 612] | < 100 nM |
| CCC[C@H](NC(=O)[C@@H]1C[C@]2(CC(c3cccc(NC(=O)C(Cl)Cl)c3)=NO2)CN1C(=O)[C@@H](NC(=O)CC1CCCCC1)C(C)(C)C)C(=O)C(=O)NC1CC1 [Compound 598] | 100 to 500 nM |
| COc1cc(OC)c(C2=NO[C@]3(C2)CC(C(=O)N[C@@H](CC2CC2)C(=O)C(N)=O)N(C(=O)[C@@H](NC(=O)CC2CCCCCC2)C(C)(C)C)C3)cc1Cl (some centres unmarked) [Compound 59] | < 100 nM |
| CCC[C@H](NC(=O)[C@@H]1C[C@]2(CC(c3cccc(Cl)n3)=NO2)CN1C(=O)[C@@H](NC(=O)CC1CCCCC1)C(C)(C)C)C(=O)C(=O)NC1CC1 [Compound 786] | 100 to 500 nM |

Same assay, conditions: Enzyme Assay 2, HCV NS3 Peptide Cleavage Assay, apparent Ki

| SMILES | Ki |
| --- | --- |
| CCC[C@H](NC(=O)[C@@H]1C[C@]2(CC(c3cc(C)c(OCC)c(C)c3)=NO2)CN1C(=O)[C@@H](NC(=O)[C@H]1C[C@@H]1c1ccccn1)C(C)(C)C)C(=O)C(=O)NC1CC1 [Compound 980] | 100 to 500 nM |
| COc1ccc(Cl)cc1C1=NO[C@]2(C1)C[C@@H](C(=O)N[C@@H](CC1CC1)C(=O)C(N)=O)N(C(=O)[C@@H](NC(=O)[C@@H]1C[C@H]1c1ccccc1)C(C)(C)C)C2 [Compound 901] | < 100 nM |
| CNC(=O)C(=O)[C@H](CC1CC1)NC(=O)[C@@H]1C[C@]2(CC(c3cccc(Cl)c3)=NO2)CN1C(=O)[C@@H](NC(=O)[C@@H]1C[C@H]1c1c[nH]cn1)C(C)(C)C [Compound 832] | 100 to 500 nM |
| CCC[C@H](NC(=O)[C@@H]1C[C@]2(CC(c3cccc(Cl)c3)=NO2)CN1C(=O)[C@@H](NC(=O)[C@@H]1C[C@H]1c1c[nH]cn1)C(C)(C)C)C(=O)C(=O)NC1CC1 [Compound 918] | 100 to 500 nM |
| CCC[C@H](NC(=O)[C@@H]1C[C@]2(CC(c3cccc(Cl)c3)=NO2)CN1C(=O)[C@@H](NC(=O)[C@H]1CC12CCOCC2)C(C)(C)C)C(=O)C(=O)NC1CC1 [Compound 826] | < 100 nM |
| CCOc1cc(OC)c(C2=NO[C@]3(C2)C[C@@H](C(=O)N[C@@H](CC2CC2)C(=O)C(N)=O)N(C(=O)[C@@H](NC(=O)OC(C)(C)C)C(C)(C)C)C3)cc1Cl [Compound 971] | < 100 nM |
| CCC[C@H](NC(=O)[C@@H]1C[C@]2(CC(c3cccc(Cl)c3)=NO2)CN1C(=O)[C@@H](NC(=O)[C@@H]1CC12CCOCC2)C(C)(C)C)C(=O)C(=O)NC [Compound 931] | 100 to 500 nM |
| CNC(=O)C(=O)[C@H](CC1CC1)NC(=O)[C@@H]1C[C@]2(CC(c3cccc(Cl)c3)=NO2)CN1C(=O)[C@@H](NC(=O)C1(c2ccccc2)CC1)C(C)(C)C [Compound 966] | > 500 nM |
| CNC(=O)C(=O)[C@H](CC1CC1)NC(=O)[C@@H]1C[C@]2(CC(c3cccc(Cl)c3)=NO2)CN1C(=O)[C@@H](NC(=O)[C@@H]1CC12CCCCC2)C(C)(C)C [Compound 850] | < 100 nM |
| CCOc1c(C)cc(C2=NO[C@]3(C2)C[C@@H](C(=O)N[C@@H](CC2CC2)C(=O)C(=O)NC)N(C(=O)[C@@H](NC(=O)[C@H]2C[C@@H]2c2ccccn2)C(C)(C)C)C3)cc1C [Compound 986] | 100 to 500 nM |
| CCC[C@H](NC(=O)[C@@H]1C[C@]2(CC(c3cc(Cl)ccc3OC)=NO2)CN1C(=O)[C@@H](NC(=O)[C@@H]1C[C@H]1c1ccccc1)C(C)(C)C)C(=O)C(=O)NC1CC1 [Compound 968] | < 100 nM |
| CCC[C@H](NC(=O)[C@@H]1C[C@]2(CC(c3cc(C)c(OCC)c(C)c3)=NO2)CN1C(=O)[C@@H](NC(=O)[C@@H]1C[C@H]1c1ccccc1)C(C)(C)C)C(=O)C(=O)NC [Compound 828] | < 100 nM |
| CCOc1c(C)cc(C2=NO[C@]3(C2)C[C@@H](C(=O)N[C@@H](CC2CC2)C(=O)C(N)=O)N(C(=O)[C@@H](NC(=O)CC2CCCCC2)C(C)(C)C)C3)cc1C [Compound 975] | < 100 nM |
| CCOc1c(C)cc(C2=NO[C@]3(C2)C[C@@H](C(=O)N[C@@H](CC2CC2)C(=O)C(=O)NC)N(C(=O)[C@@H](NC(=O)OC2CCCC2)C(C)(C)C)C3)cc1Cl [Compound 817] | < 100 nM |
| CCNC(=O)C(=O)[C@H](CC1CC1)NC(=O)[C@@H]1C[C@]2(CC(c3cc(C)c(OC)c(Cl)c3)=NO2)CN1C(=O)[C@@H](NC(=O)[C@@H]1C[C@H]1c1ccccc1)C(C)(C)C [Compound 856] | < 100 nM |

Each compound was assayed against T2, HCV NS3 protease domain (Hepatitis C virus genotype 1b, UniProt Q9WMX2) (assay: biochemical). Settings: Enzyme Assay 1 (HCV NS3 Protease Domain Peptide Cleavage Assay) activity, apparent Ki class.
T2 construct: The first 181 amino acids of NS3 (residues 1027-1207 of the viral polyprotein); hexa-histidine (C); made in house; host or cells: E. coli BL21/DE3 pLysS

| SMILES | Ki |
| --- | --- |
| C=C[C@@H]1C[C@]1(NC(=O)[C@@H]1C[C@]2(CC(c3cccc(Cl)c3)=NO2)CN1C(=O)[C@@H](NC(=O)OC1CCCC1)C(C)(C)C)C(=O)O [Compound 443] | > 500 nM |
| CCC[C@H](NC(=O)[C@@H]1C[C@]2(CC(c3cccc(Cl)c3)=NO2)CN1C(=O)[C@H](CC(C)C)NS(=O)(=O)c1ccc(OC)cc1)C(=O)C(=O)NC1CC1 [Compound 587] | > 500 nM |
| CCC[C@H](NC(=O)[C@@H]1C[C@]2(CC(c3cccc(Cl)c3)=NO2)CN1C(=O)[C@@H](NC(=O)CC1CCCCC1)C(C)(C)C)C(=O)C(=O)N[C@@H](C)C(O)(c1ccccc1)c1ccccc1 [Compound 507] | > 500 nM |
